“And” between values parts separate entries of the source, which are not always exact repeats. Identical values can stand only once.
System: A498 complex spheroid viability
Test: Anticancer human tumor A498 cell line growth inhibition;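 also: spheroids exposed to agents for seven days before readout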;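 as to viability, T/C: 100% = DMSO vehicle-treated spheroids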
Conditions: for viability, T/C: stronger effect = lower value; active = viability on the fitted dose curve at most 10% of control; inactive = the rest
How it was run: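 Drug combinations with the LSD1 inhibitor iadademstat tested on tumor cells co-cultured as spheroids with endothelial cells and mesenchymal stem cells. Concentrations descended in half-log increments from clinical Cmax or 10 microM.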

[1] = curve of first compound, second compound 0.1 µM
[2] = curve of first compound, second compound 0.316 µM
[3] = curve of first compound, second compound 1 µM
[4] = curve of first compound, second compound 3.16 µM
[5] = curve of first compound, second compound 10 µM
[6] = second compound 0.1 µM, first compound 0.0316 µM
[7] = second compound 0.1 µM, first compound 0.1 µM
[8] = second compound 0.1 µM, first compound 0.316 µM
[9] = second compound 0.1 µM, first compound 1 µM
[10] = second compound 0.1 µM, first compound 3.16 µM
[11] = second compound 0.1 µM, first compound 10 µM
[12] = second compound 0.316 µM, first compound 0.0316 µM
[13] = second compound 0.316 µM, first compound 0.1 µM
[14] = second compound 0.316 µM, first compound 0.316 µM
[15] = second compound 0.316 µM, first compound 1 µM
[16] = second compound 0.316 µM, first compound 3.16 µM
[17] = second compound 0.316 µM, first compound 10 µM
[18] = second compound 1 µM, first compound 0.0316 µM
[19] = second compound 1 µM, first compound 0.1 µM
[20] = second compound 1 µM, first compound 0.316 µM
[21] = second compound 1 µM, first compound 1 µM
[22] = second compound 1 µM, first compound 3.16 µM
[23] = second compound 1 µM, first compound 10 µM
[24] = second compound 3.16 µM, first compound 0.0316 µM
[25] = second compound 3.16 µM, first compound 0.1 µM
[26] = second compound 3.16 µM, first compound 0.316 µM
[27] = second compound 3.16 µM, first compound 1 µM
[28] = second compound 3.16 µM, first compound 3.16 µM
[29] = second compound 3.16 µM, first compound 10 µM
[30] = second compound 10 µM, first compound 0.0316 µM
[31] = second compound 10 µM, first compound 0.1 µM
[32] = second compound 10 µM, first compound 0.316 µM
[33] = second compound 10 µM, first compound 1 µM
[34] = second compound 10 µM, first compound 3.16 µM
[35] = second compound 10 µM, first compound 10 µM
[36] = second compound 0.1 µM, first compound 0.00949 µM
[37] = second compound 0.1 µM, first compound 0.03 µM
[38] = second compound 0.1 µM, first compound 0.0949 µM
[39] = second compound 0.1 µM, first compound 0.3 µM
[40] = second compound 0.1 µM, first compound 0.949 µM
[41] = second compound 0.1 µM, first compound 3 µM
[42] = second compound 0.316 µM, first compound 0.00949 µM
[43] = second compound 0.316 µM, first compound 0.03 µM
[44] = second compound 0.316 µM, first compound 0.0949 µM
[45] = second compound 0.316 µM, first compound 0.3 µM
[46] = second compound 0.316 µM, first compound 0.949 µM
[47] = second compound 0.316 µM, first compound 3 µM
[48] = second compound 1 µM, first compound 0.00949 µM
[49] = second compound 1 µM, first compound 0.03 µM
[50] = second compound 1 µM, first compound 0.0949 µM
[51] = second compound 1 µM, first compound 0.3 µM
[52] = second compound 1 µM, first compound 0.949 µM
[53] = second compound 1 µM, first compound 3 µM
[54] = second compound 3.16 µM, first compound 0.00949 µM
[55] = second compound 3.16 µM, first compound 0.03 µM
[56] = second compound 3.16 µM, first compound 0.0949 µM
[57] = second compound 3.16 µM, first compound 0.3 µM
[58] = second compound 3.16 µM, first compound 0.949 µM
[59] = second compound 3.16 µM, first compound 3 µM
[60] = second compound 10 µM, first compound 0.00949 µM
[61] = second compound 10 µM, first compound 0.03 µM
[62] = second compound 10 µM, first compound 0.0949 µM
[63] = second compound 10 µM, first compound 0.3 µM
[64] = second compound 10 µM, first compound 0.949 µM
[65] = second compound 10 µM, first compound 3 µM

CC1(C)CCC(CN2CCN(c3ccc(C(=O)NS(=O)(=O)c4ccc(NCC5CCOCC5)c([N+](=O)[O-])c4)c(Oc4cnc5[nH]ccc5c4)c3)CC2)=C(c2ccc(Cl)cc2)C1 + NC1CCC(NC2CC2c2ccccc2)CC1
active: viability, T/C [11] 3.91% | viability, T/C [17] 4.52% | viability, T/C [23] 3.45% | viability, T/C [29] 3.58% | viability, T/C [35] 2.98%
3670 nM: IC50 [1]
3470 nM: IC50 [3]
1970 nM: IC50 [5]
inactive: viability, T/C [6] 87.7% | viability, T/C [7] 89.2% | viability, T/C [8] 85.5% | viability, T/C [9] 76.4% | viability, T/C [10] 57.5% | viability, T/C [12] 87.2% | viability, T/C [13] 92.6% | viability, T/C [14] 91.3% | viability, T/C [15] 79.1% | viability, T/C [16] 60.7% | viability, T/C [18] 84.5% | viability, T/C [19] 86.2% | viability, T/C [20] 85.1% | viability, T/C [21] 76.9% | viability, T/C [22] 54.3% | viability, T/C [24] 82.5% | viability, T/C [25] 85.5% | viability, T/C [26] 80% | viability, T/C [27] 70.2% | viability, T/C [28] 47% | viability, T/C [30] 81.1% | viability, T/C [31] 75.2% | viability, T/C [32] 76.5% | viability, T/C [33] 65.2% | viability, T/C [34] 39.2%
3890 nM: IC50 [2]
2710 nM: IC50 [4]

CC1COCCN1c1cc(-c2ccnn2C)c2ccnc(-c3ccn[nH]3)c2n1 (configuration not stated)
22.8 nM and 23.4 nM: IC50 (curve of compound)
inactive: viability, T/C (compound 0.00316 µM) 103% and 100% | viability, T/C (compound 0.01 µM) 82% and 81.8% | viability, T/C (compound 0.0316 µM) 36.7% and 37.3% | viability, T/C (compound 0.1 µM) 18.8% and 22.5% | viability, T/C (compound 0.316 µM) 14.9% and 16.1% | viability, T/C (compound 1 µM) 11.2% and 10.8%

CC(C)c1c(-c2ccccc2)nc2c(C#N)c[nH]n2c1=O + NC1CC1c1ccc(-c2cccc(O)c2)cc1
inactive: viability, T/C [6] 98% | viability, T/C [7] 113% | viability, T/C [8] 106% | viability, T/C [9] 102% | viability, T/C [10] 104% | viability, T/C [11] 108% | viability, T/C [12] 104% | viability, T/C [13] 101% | viability, T/C [14] 101% | viability, T/C [15] 107% | viability, T/C [16] 99.1% | viability, T/C [17] 97.4% | viability, T/C [18] 93.4% | viability, T/C [19] 101% | viability, T/C [20] 95.6% | viability, T/C [21] 99.5% | viability, T/C [22] 89% | viability, T/C [23] 98% | viability, T/C [24] 97.4% | viability, T/C [25] 94% | viability, T/C [26] 97.5% | viability, T/C [27] 94.7% | viability, T/C [28] 94.9% | viability, T/C [29] 98.5% | viability, T/C [30] 86.7% | viability, T/C [31] 92% | viability, T/C [32] 91.3% | viability, T/C [33] 97.4% | viability, T/C [34] 96.1% | viability, T/C [35] 94.9%
> 10000 nM: IC50 [1] | IC50 [2] | IC50 [3] | IC50 [4] | IC50 [5]

Nc1ccccc1NC(=O)c1ccc(CNC(=O)OCc2cccnc2)cc1 + NC1CC1c1ccc(-c2cccc(O)c2)cc1
inactive: viability, T/C [36] 89.5% | viability, T/C [37] 88% | viability, T/C [38] 72.6% | viability, T/C [39] 59.2% | viability, T/C [40] 19.5% | viability, T/C [42] 93.1% | viability, T/C [43] 95.4% | viability, T/C [44] 84.1% | viability, T/C [45] 50.6% | viability, T/C [46] 21.1% | viability, T/C [48] 88.3% | viability, T/C [49] 89.3% | viability, T/C [50] 77.7% | viability, T/C [51] 46% | viability, T/C [52] 20.6% | viability, T/C [54] 81% | viability, T/C [55] 87.5% | viability, T/C [56] 78.2% | viability, T/C [57] 55.7% | viability, T/C [58] 19.2% | viability, T/C [60] 86.2% | viability, T/C [61] 78.6% | viability, T/C [62] 70.7% | viability, T/C [63] 48.1% | viability, T/C [64] 19.4%
266 nM: IC50 [5]
284 nM: IC50 [3]
357 nM: IC50 [1]
333 nM: IC50 [2]
362 nM: IC50 [4]
active: viability, T/C [41] 1.7% | viability, T/C [47] 1.7% | viability, T/C [53] 1.74% | viability, T/C [59] 2.01% | viability, T/C [65] 1.69%

O=C(C=Cn1cnc(-c2cc(C(F)(F)F)cc(C(F)(F)F)c2)n1)NNc1cnccn1 + NC1CC1c1ccc(-c2cccc(O)c2)cc1
11.8 nM: IC50 [1]
9.73 nM: IC50 [2]
7.24 nM: IC50 [5]
9.22 nM: IC50 [3]
6.36 nM: IC50 [4]
inactive: viability, T/C (second compound 0.1 µM, first compound 0.00316 µM) 69.8% | viability, T/C (second compound 0.1 µM, first compound 0.01 µM) 50.3% | viability, T/C [6] 40.5% | viability, T/C [7] 29.3% | viability, T/C [8] 25.2% | viability, T/C [9] 19.3% | viability, T/C (second compound 0.316 µM, first compound 0.00316 µM) 72.2% | viability, T/C (second compound 0.316 µM, first compound 0.01 µM) 47.7% | viability, T/C [12] 37.5% | viability, T/C [13] 28.8% | viability, T/C [14] 25.8% | viability, T/C [15] 20.1% | viability, T/C (second compound 1 µM, first compound 0.00316 µM) 70.9% | viability, T/C (second compound 1 µM, first compound 0.01 µM) 46.9% | viability, T/C [18] 37.1% | viability, T/C [19] 28.4% | viability, T/C [20] 27.8% | viability, T/C [21] 20.7% | viability, T/C (second compound 3.16 µM, first compound 0.00316 µM) 61% | viability, T/C (second compound 3.16 µM, first compound 0.01 µM) 41.9% | viability, T/C [24] 34.8% | viability, T/C [25] 26.8% | viability, T/C [26] 27% | viability, T/C [27] 22.3% | viability, T/C (second compound 10 µM, first compound 0.00316 µM) 61.3% | viability, T/C (second compound 10 µM, first compound 0.01 µM) 43.8% | viability, T/C [30] 36.5% | viability, T/C [31] 31.8% | viability, T/C [32] 24.1% | viability, T/C [33] 21.6%

COc1cc(C2c3cc4c(cc3C(OC3OC5COC(C)OC5C(O)C3O)C3COC(=O)C23)OCO4)cc(OC)c1O (configuration not stated) + NC1CC1c1ccc(-c2cccc(O)c2)cc1
inactive: viability, T/C [36] 75.3% | viability, T/C [37] 68.7% | viability, T/C [38] 62.1% | viability, T/C [39] 62.8% | viability, T/C [40] 58.2% | viability, T/C [41] 44.4% | viability, T/C [42] 87.3% | viability, T/C [43] 74.7% | viability, T/C [44] 68.7% | viability, T/C [45] 58.6% | viability, T/C [46] 55.6% | viability, T/C [47] 51.3% | viability, T/C [48] 76.7% | viability, T/C [49] 63% | viability, T/C [50] 59.9% | viability, T/C [51] 49.8% | viability, T/C [52] 54.1% | viability, T/C [53] 46.5% | viability, T/C [54] 66.4% | viability, T/C [55] 53.6% | viability, T/C [56] 55.9% | viability, T/C [57] 52.2% | viability, T/C [58] 46.1% | viability, T/C [59] 42.9% | viability, T/C [60] 63.5% | viability, T/C [61] 61.1% | viability, T/C [62] 57.5% | viability, T/C [63] 51.7% | viability, T/C [64] 47.4% | viability, T/C [65] 41.7%
> 3000 nM: IC50 [2]
296 nM: IC50 [4]
1800 nM: IC50 [1]
1110 nM: IC50 [3]
523 nM: IC50 [5]
